Data published in patent publication US20070060480A1, “Heteroaroyl-substituted phenylalanineamides” (priority 2003, published 2007).

Columns and labels:
[1] = tested on: Chenopodium album; assay: greenhouse post-emergence herbicidal test; assay type: in vivo; settings: for post-emergence activity against lambsquarters: application rate 1.0 kg/ha
Procedure: (§1) The seeds of the test plants were sown separately for each species. For the post-emergence treatment, the test plants were grown to a plant height of from 3 to 15 cm, depending on the plant habit, and only then treated with the active ingredients which had been suspended or emulsified in water. To this end, the test plants were either sown directly and grown in the same containers, or they were first grown separately as seedlings and transplanted into the test containers a few days prior to treatment. […] (active substance). Depending on the species, the plants were kept at from 10 to 25° C. and 20 to 35° C., respectively. The test period extended over 2 to 4 weeks. During this time, the plants were tended, and their response to the individual treatments was evaluated. Evaluation was carried out using a scale of from 0 to 100. 100 means no emergence of the plants, or complete destruction of at least the aerial parts, and 0 means no damage or normal course of growth. The plants used in the greenhouse experiments belonged to the following species: [table]

[2] = tested on: Echinocloa crus-galli; assay: greenhouse post-emergence herbicidal test; assay type: in vivo; settings: application rate 1.0 kg/ha
Procedure: as §1

[3] = tested on: Galium aparine; assay: greenhouse post-emergence herbicidal test; assay type: in vivo; settings: application rate 1.0 kg/ha
Procedure: as §1

[4] = tested on: Setaria viridis; assay: greenhouse post-emergence herbicidal test; assay type: in vivo; settings: for post-emergence activity against green foxtail: application rate 1.0 kg/ha
Procedure: as §1

[5] = tested on: Amaranthus retroflexus; assay: greenhouse post-emergence herbicidal test; assay type: in vivo; settings: for post-emergence activity against pig weed: application rate 1.0 kg/ha
Procedure: as §1

[6] = tested on: Polygonum convolvulus; assay: greenhouse post-emergence herbicidal test; assay type: in vivo; settings: application rate 1.0 kg/ha
Procedure: as §1

Row | SMILES | post-emergence activity against lambsquarters [1] | post-emergence activity against cockspur [2] | post-emergence activity against cleavers harrif [3] | post-emergence activity against green foxtail [4] | post-emergence activity against pig weed [5] | also measured
1 | CNC(=O)C(NC(=O)c1cc(C)oc1C(F)(F)F)C(O)c1ccccc1 (racemic) [Compound 5.14] | very good | very good | very good | very good | – | –
2 | CNC(=O)C(NC(=O)c1ccsc1C(F)(F)F)C(OC(=O)COC)c1ccccc1 (racemic) [Compound 5.6] | very good | – | – | very good | very good | –
3 | CNC(=O)C(NC(=O)c1cn(C)nc1C(F)(F)F)C(OC(=O)C(C)(C)C)c1ccccc1 (racemic) [Compound 4.15, 2-Methylcarbamoyl-2-[(1-methyl-3-trifluoromethyl-1H-pyrazole-4-carbonyl)amino]-1-phenylethyl 2,2-dimethylpropionate] | – | – | – | – | – | melting point: 158 °C
4 | CCC(CC)C(=O)OC(c1ccccc1)C(NC(=O)c1cn(C)nc1C(F)(F)F)C(=O)NC (racemic) [Compound 4.14] | very good | – | – | very good | very good | –
5 | CNC(=O)C(NC(=O)c1cn(C)nc1C(F)(F)F)C(O)c1ccccc1 (racemic) [Compound 4.9, N-(2-Hydroxy-1-methylcarbamoyl-2-phenylethyl)-1-methyl-3-trifluoromethyl-1H-pyrazole-4-carboxamide] | – | – | – | – | – | melting point: 216 °C
6 | CNC(=O)C(NC(=O)c1ccncc1C(F)(F)F)C(O)c1ccccc1 (racemic) [Compound 5.23] | very good | – | very good | very good | very good | –
7 | CNC(=O)C(NC(=O)c1cc(C)oc1C(F)(F)F)C(OC(=O)N(C)C)c1ccccc1 (racemic) [Compound 5.16] | very good | very good | – | very good | – | post-emergence activity against black bindweed [6]: very good
8 | CNC(=O)C(NC(=O)c1cn(C)nc1C(F)(F)F)C(C)c1ccccc1C (mixture of isomers) [Compound 4.6] | very good | – | – | very good | very good | –
9 | CNC(=O)C(NC(=O)c1cn(C)nc1C(F)(F)F)C(OS(C)(=O)=O)c1ccccc1 (racemic) [Compound 4.22] | – | – | – | – | – | post-emergence action on pig weed ([5]; application rate 0.5 kg/ha): very good; post-emergence action on lambsquarters ([1]; application rate 0.5 kg/ha): very good; post-emergence action on green foxtail ([4]; application rate 0.5 kg/ha): very good
10 | CNC(=O)C(NC(=O)c1cscc1C(F)(F)F)C(OC(=O)N(C)C)c1ccccc1 (racemic) [Compound 5.8] | very good | very good | very good | very good | – | post-emergence activity against black bindweed [6]: very good
